# Entries after “also recorded” stand apart in the source; their conditions may differ. Where a name gives a salt, the structure may show the parent alone.
# Tests used:
# [1] = system: ROS generation in photoreceptors of Abca4−/−Rdh8−/− mice; assay: In vivo detection of ROS (DHE probe) in retinas of light-exposed Abca4−/−Rdh8−/− mice; design: species or system mouse; conditions: Example 1; pretreatment before light 10,000 lux 30 min; retinas 3 h after illumination
# Description: The ROS probe, DHE, at a dose of 20 mg/kg body weight was administered to Abca4^−/−Rdh8^−/− mice via intraperitoneal injection 30 min prior to light exposure. Eye cups obtained after removing the cornea, lens and vitreous body from enucleated eye globes 3 h post light illumination were fixed in 4% paraformaldehyde. Cryosections were prepared from fixed eye cups and cut at 12 am thickness for microscopic assessment of ROS signal fluorescence in the retina.
# The ROS probe, DHE, at a dose of 20 mg/kg body weight in 25 μl of DMSO, was administered to Abca4^−/−Rdh8^−/− mice via intraperitoneal injection 1 h prior to light exposure. Eye cups obtained after removing the cornea, lens, and vitreous body from enucleated eye globes 3 h post light illumination were fixed in 4% paraformaldehyde. Cryosections were prepared from fixed eye cups and cut at 12-am thickness for microscopic assessment of ROS fluorescence in the retina with ImageJ software (National Institutes of Health).
# Abca4−/−Rdh8−/− mice [2] = assay: Bright light-induced retinal degeneration in Abca4−/−Rdh8−/− mice, ERG retinal function; conditions: pretreatment before light 10,000 lux 30 min, ERG 7 days to 2 weeks after
# Abca4−/−Rdh8−/− mice [3] = assay: Bright light-induced retinal degeneration in Abca4−/−Rdh8−/− mice, retinal histology and immunohistochemistry; assay type: in vivo, mouse; conditions: pretreatment before light 10,000 lux 30 min; 7-10 days after light exposure
# Description: Retinal histology and immunohistochemistry (IHC) was performed as previously described. Briefly, eye cups free of cornea, lens and vitreous body were fixed in 2% glutaraldehyde/4% paraformaldehyde and processed for Epon embedding. Sections 1 am thick were cut and stained with toluidine blue for histological examination under a light microscope. IHC analysis was performed on 12 am thick cryosections prepared from 4% paraformaldehyde-fixed eye cups. Collected cryosections were subjected to examination for rhodopsin, PNA and DAPI expression.
# Retinal immunohistochemistry (IHC) was carried out as previously described. Briefly, eyes were enucleated and eye cups were made to eliminate cornea, lens and vitreous body and fixed in 4% paraformaldehyde and processed for cryosectioning. 12 am thick cryosections were collected cryosections and subjected to examination for rhodopsin, peanut agglutinin lectin (PNA) and DAPI expression.
# Retinal immunohistochemistry (IHC) was performed as previously described. Briefly, eyes were enucleated and, after removal of the cornea, lens and vitreous body, eye cups were fixed in 4% paraformaldehyde and processed for cryosectioning. Twelve μm thick cryosections were cut, collected and examined for rhodopsin expression, peanut agglutinin lectin (PNA) for cone sheath and nuclear DAPI staining. […]
# Abca4−/−Rdh8−/− mice [4] = assay: Bright light-induced retinal degeneration in Abca4−/−Rdh8−/− mice, OCT imaging of retinal structure; assay type: in vivo, mouse; conditions: for retinal / photoreceptor morphology by OCT imaging: pretreatment before light 10,000 lux 30 min, OCT 7 days after light exposure; for Percent of mice with: subeffective doses BRM 0.1, MTP 1, TAM 0.05, DOX 1 mg/kg bw, OCT 7 days; for Effect (effectiveness at preventing light-induced photoreceptor degeneration as measured by OCT imaging): ip, dose of each compound in column Dose of Table 1
# [5] = system: retinal transcriptome of Abca4−/−Rdh8−/− mice; assay: RNA-seq retinal transcriptome of pretreated, light-exposed Abca4−/−Rdh8−/− mice (differential expression, Pearson, GSEA); assay type: in vivo, mouse
# Abca4−/−Rdh8−/− mice [6] = assay: Bright light-induced retinal degeneration in Abca4−/−Rdh8−/− mice, SLO autofluorescence imaging; assay type: in vivo, mouse; conditions: pretreatment before light 10,000 lux 30 min; SLO 8-9 days after light exposure
# Description: SLO (Heidelberg Engineering, Heidelberg, Germany) was carried out for whole fundus imaging of mouse retinas. Mice were anesthetized by intraperitoneal injection of anesthetic cocktail indicated above, which was followed by pupil dilation using 1% tropicamide prior to SLO imaging under autofluorescence mode.
# SLO (Heidelberg Engineering) was carried out for in vivo whole fundus imaging of mouse retinas. […] Numbers of autofluorescent spots were counted and subjected to statistical analyses as described below.
# SLO (Heidelberg Engineering) was carried out for whole fundus imaging of mouse retinas in vivo. Mice were anesthetized, and their pupils were dilated as described above. SLO images were then acquired in the autofluorescence mode.
# ARPE19 cells = assay: In vitro detection and quantification of intracellular ROS in ARPE19 cells (DCF-DA / DHE probes); assay type: cell-based, human; conditions: retinoid applied to cultured ARPE19 cells, ROS probe DCF-DA or DHE
# Description: ARPE19 cells were cultured in Dulbecco's Modified Eagle's Medium (DMEM) (low glucose) supplemented with 10% fetal bovine serum. The ROS probes, 2′,7′-dichlorofluorescein diacetate (DCF-DA, Sigma, St. Louis, Mo.) or dihydroethidium (DHE, Invitrogen Corporation, Carlsbad, Calif.) were added after indicated pretreatments and incubated at 37° C. for 10-min before thorough washing in PBS and the ROS signals were subsequently observed at the same exposure setting under an inverted fluorescence microscope (Leica DMI 6000 B). Fluorescence quantification was performed with Metamorph imaging software (Molecular Devices, Downington, Pa.). Thresholds corresponding to fluorescent signals were set from the images and average fluorescence intensities were recorded for statistical analysis.
# [7] = GSEA, vehicle-treated light-exposed retinas against drug-treated
Compound,"retinal histology / immunohistochemistry (rhodopsin, PNA, DAPI; ONL) (Abca4−/−Rdh8−/− mice [3])",retinal / photoreceptor morphology by OCT imaging (Abca4−/−Rdh8−/− mice [4]),retinal autofluorescence spots by SLO imaging (Abca4−/−Rdh8−/− mice [6]),also measured
"CC(C)C[C@H](CN)CC(=O)O (single isomer, unassigned) [R and S enantiomer of pregabalin, pregabalin]",,,,ROS production in the ONL / photoreceptors (DHE signal) [1]: also consistently observed
"C[N+]1(C)CCC(OC(=O)C(c2ccccc2)c2ccccc2)CC1.[I-] [4-DAMP, 1,1-dimethyl-4-diphenylacetoxypiperidinium iodide]",preserve retinal morphology,,,retinal function by ERG (a-wave and b-wave amplitudes) (Abca4−/−Rdh8−/− mice [2]): protective effect
"CCCN(CCC)C1CCc2cccc(O)c2C1 (centres unmarked) [8-OH-DPAT, 8-hydroxy-N,N-dipropyl-2-aminotetralin]",,protective effect; also recorded: dose-dependent,,
"CC(C)C[C@H]1C(=O)N2CCC[C@H]2[C@]2(O)O[C@](NC(=O)[C@@H]3C=C4c5cccc6[nH]c(Br)c(c56)C[C@H]4N(C)C3)(C(C)C)C(=O)N12 [BRM, 2-Bromo-α-ergocryptine methanesulfonate salt]",,,,"Percent of mice with (Abca4−/−Rdh8−/− mice [4]; Table 14 (complete protection, ONL ≥50 μm)): 16.7% of mice; Percent of mice with (Abca4−/−Rdh8−/− mice [4]; Table 14 (no protection, ONL ≤20 μm)): 66.7% of mice; light-exposed mice with complete retinal protection (Abca4−/−Rdh8−/− mice [4]; lower doses BRM 0.1, MTP 1, TAM 0.05 mg/kg bw, alone or all three combined): 17%; NES, CHEMOKINE SIGNALING gene set [5, 7]: 1.67; NES, CYTOKINE- RECEPTOR INTERACTIO gene set [5, 7]: 2.31; NES, P53 gene set [5, 7]: 2.06; NES, TOLL-LIKE SIGNALING gene set [5, 7]: 2.20; NES, APOPTOSIS gene set ([5]; GSEA, vehicle-treated light-exposed retinas against drug-treated, P in brackets not reported here): 1.75; number of light-up-regulated gene sets significantly down-regulated (GSEA) ([5]; of 44 gene sets up-regulated by light, mono doses BRM 1, MTP 10, TAM 2.5, DOX 10 mg/kg bw): 29 gene sets"
"c1ccc([I+]c2ccccc2)cc1 [DPI, diphenyliodonium]",nearly intact retinal morphology,well-preserved retinal morphology,,retinal function by ERG (a-wave and b-wave amplitudes) (Abca4−/−Rdh8−/− mice [2]): protective effect
Cl.N=C(N)NC(=O)Cc1c(Cl)cccc1Cl [Guanfacine],substantially preserved photoreceptor morphology,significantly prevented,markedly less autofluorescence spots,
"c1ccc2c(c1)OCC(C1=NCCN1)O2 (centres unmarked) [IDA, idazoxan]",,,,"effect on the protective action of GUB (Abca4−/−Rdh8−/− mice [4]; IDA 2.5 and 5 mg/kg BW first, then GUB 2 mg/kg BW, FIG. 25D): totally abolished the protective action"
"CC(C)n1cc2c3c(cccc31)[C@H]1C[C@@H](C(=O)N[C@H]3CCC[C@H]3O)CN(C)[C@@H]1C2 [LY 215840, (8β)-N-[(1S,2R)-2-Hydroxycyclopentyl]-1-isopropyl-6-methylergoline-8-carboxamide]",substantially preserved photoreceptor morphology,profound preservation of photoreceptor morphology,significantly reduced formation of autofluorescence spots,retinal function by ERG (a-wave and b-wave amplitudes) (Abca4−/−Rdh8−/− mice [2]; listed as LY): substantial preservation of the scotopic ERG response; also recorded: substantial preservation of this response
CC(Oc1c(Cl)cccc1Cl)C1=NCCN1.Cl (centres unmarked) [Lofexidine],,significantly prevented,markedly less autofluorescence spots,retinal function by ERG (a-wave and b-wave amplitudes) (Abca4−/−Rdh8−/− mice [2]; listed as LOF): substantial preservation of the scotopic ERG response; also recorded: substantial preservation of this response
COc1cc2nc(N3CCN(C(=O)c4ccco4)CC3)nc(N)c2cc1OC.Cl [Prazosin],substantially preserved photoreceptor morphology,substantial protection on photoreceptor morphology,significantly protected retinas from developing light-induced damage,
COc1cc(N)c(Cl)cc1C(=O)OCCCN1CCCCC1.Cl [RS 23579-190],substantially preserved photoreceptor morphology,profound preservation of photoreceptor morphology,significantly reduced formation of autofluorescence spots,retinal function by ERG (a-wave and b-wave amplitudes) (Abca4−/−Rdh8−/− mice [2]; listed as RS): substantial preservation of the scotopic ERG response; also recorded: substantial preservation of this response
"CC1=C(/C=C/C(C)=C/C=C/C(C)=C/CN)C(C)(C)CCC1 [Ret-NH2, all-trans-retinylamine]",,,,ROS production in the ONL / photoreceptors (DHE signal) [1]: significantly decreased ROS production
"CNc1cc(NS(=O)(=O)c2ccc(N)cc2)nc(NC)n1 [Ro 04-6790, 4-Amino-N-[2,6-bis(methylamino)-4-pyrimidinyl]benzenesulfonamidev]",substantially preserved photoreceptor morphology,profound preservation of photoreceptor morphology,significantly reduced formation of autofluorescence spots,retinal function by ERG (a-wave and b-wave amplitudes) (Abca4−/−Rdh8−/− mice [2]; listed as RO): substantial preservation of the scotopic ERG response; also recorded: substantial preservation of this response
"CC1CCN(CC[C@H]2CCCN2S(=O)(=O)c2cccc(O)c2)CC1.Cl [SB 269970, 3-({(2R)-2-[2-(4-Methyl-1-piperidinyl)ethyl]-1-pyrrolidinyl}sulfonyl)phenol hydrochloride (1:1)]",,profound preservation of photoreceptor morphology,significantly reduced formation of autofluorescence spots,
CN1CCC(c2cn(C)c3ccc(OS(=O)(=O)c4c(F)cccc4F)cc23)CC1 [SGS 518 oxalate],substantially preserved photoreceptor morphology,profound preservation of photoreceptor morphology,significantly reduced formation of autofluorescence spots,
"COc1ccc2c(c1)CC[C@@H]1[C@@H]2CC[C@]2(C)[C@@H](NCCCCCCN3C(=O)C=CC3=O)CC[C@@H]12 [U-73122, 1-(6-((17β-3-methoxyestra-1,3,5(10)-trien-17-yl)amino)hexyl)-1H-pyrrole-2,5-dione]",markedly less light-induced photoreceptor damage,,,retinal function by ERG (a-wave and b-wave amplitudes) (Abca4−/−Rdh8−/− mice [2]): protective effect
COC(=O)[C@@H]1[C@H]2C[C@H]3c4[nH]c5ccccc5c4CCN3C[C@@H]2CC[C@@H]1O.Cl [Yohimbine],,,,Effect (effectiveness at preventing light-induced photoreceptor degeneration as measured by OCT imaging) (Abca4−/−Rdh8−/− mice [4]): toxic
"CC1=C(/C=C/C(C)=C/C=C/C(C)=C/C=O)C(C)(C)CCC1 [atRAL, all-trans-retinal]",,,,intracellular ROS production (ARPE19 cells): significantly elevated intracellular ROS production
O=C(c1ccc(F)cc1)C1CCN(CCn2c(=O)[nH]c3ccccc3c2=O)CC1 [ketanserin],substantial protective effect,,,retinal function by ERG (a-wave and b-wave amplitudes) (Abca4−/−Rdh8−/− mice [2]): protective effect
"Cc1nc2sccn2c(=O)c1CCN1CCC(=C(c2ccc(F)cc2)c2ccc(F)cc2)CC1 [ritanserin, Ritanserin]",,substantially protected photoreceptors from light-induced degeneration,,retinal function by ERG (a-wave and b-wave amplitudes) (Abca4−/−Rdh8−/− mice [2]): protective effect
Eltoprazine,,,,Effect (effectiveness at preventing light-induced photoreceptor degeneration as measured by OCT imaging) (Abca4−/−Rdh8−/− mice [4]): 20%

# From patent US10426773B2, “Systems pharmacology for treating ocular disorders” (Case Western Reserve Univeristy, priority 2011, dated 2019)
